ChEMBL document CHEMBL4665727, “Discovery of biphenyl pyrazole scaffold for neurodegenerative diseases: A novel class of acetylcholinesterase-centered multitargeted ligands” (Bioorg Med Chem Lett, 2020)
The source made the active and inactive calls. The calls are words filed in the database; no cut-off is given here.

Legend:
[1] = Permeability of compound by PAMPA-BBB assay
[2] = Permeability in human Caco-2 cells; type: ADME, cell-based
[3] = molecular target: T1, Microtubule-associated protein tau (Homo sapiens, UniProt P10636); experiment: Binding affinity to tau (unknown origin) assessed as dissociation constant by isothermal titration calorimetry
Acetylcholinesterase [4] = molecular target: T2, Acetylcholinesterase (Homo sapiens, UniProt P22303); experiment: Mixed inhibition of AChE (unknown origin) using acetylthiocholine iodide as substrate by UV-vis spectrophotometry based Lineweaver-burk plot analysis
[5] = Stability of compound in intestinal juice
Acetylcholinesterase [6] = molecular target: T2, Acetylcholinesterase; experiment: Binding affinity to AChE (unknown origin) assessed as dissociation constant by SPR analysis
[7] = molecular target: T1, Microtubule-associated protein tau; experiment: Binding affinity to tau (unknown origin) assessed as dissociation constant by microscale thermophoresis assay
[8] = molecular target: T1, Microtubule-associated protein tau; experiment: Binding affinity to tau (unknown origin) assessed as exothermal interaction by isothermal titration calorimetry
Acetylcholinesterase [9] = molecular target: T2, Acetylcholinesterase; experiment: Inhibition of AChE (unknown origin) using acetylthiocholine iodide as substrate by UV-vis spectrophotometry based Ellman's method
[10] = Metabolic stability in human plasma; type: ADME, cell-free
HEL 299 = experiment: Cytotoxicity against HEL 299 cells by MTT assay; type: cell-based; conditions: human
[11] = molecular target: T1, Microtubule-associated protein tau; experiment: Inhibition of tau oligomerization in human […] cells by TR-FRET assay; type: cell-based
[12] = Stability of compound in gastric fluid; type: physicochemical; conditions: simulated gi fluid
[13] = molecular target: T1, Microtubule-associated protein tau; experiment: Binding affinity to tau (unknown origin) assessed as dissociation constant by SPR analysis
SH-SY5Y = experiment: Protection against amyloid beta oligomer-induced cytotoxicity in human SH-SY5Y cells expressing wild-type Tau assessed as cell viability at 10 uM by MTT assay; type: functional; conditions: read-out: Activity

T1 sequence (P10636 whole entry): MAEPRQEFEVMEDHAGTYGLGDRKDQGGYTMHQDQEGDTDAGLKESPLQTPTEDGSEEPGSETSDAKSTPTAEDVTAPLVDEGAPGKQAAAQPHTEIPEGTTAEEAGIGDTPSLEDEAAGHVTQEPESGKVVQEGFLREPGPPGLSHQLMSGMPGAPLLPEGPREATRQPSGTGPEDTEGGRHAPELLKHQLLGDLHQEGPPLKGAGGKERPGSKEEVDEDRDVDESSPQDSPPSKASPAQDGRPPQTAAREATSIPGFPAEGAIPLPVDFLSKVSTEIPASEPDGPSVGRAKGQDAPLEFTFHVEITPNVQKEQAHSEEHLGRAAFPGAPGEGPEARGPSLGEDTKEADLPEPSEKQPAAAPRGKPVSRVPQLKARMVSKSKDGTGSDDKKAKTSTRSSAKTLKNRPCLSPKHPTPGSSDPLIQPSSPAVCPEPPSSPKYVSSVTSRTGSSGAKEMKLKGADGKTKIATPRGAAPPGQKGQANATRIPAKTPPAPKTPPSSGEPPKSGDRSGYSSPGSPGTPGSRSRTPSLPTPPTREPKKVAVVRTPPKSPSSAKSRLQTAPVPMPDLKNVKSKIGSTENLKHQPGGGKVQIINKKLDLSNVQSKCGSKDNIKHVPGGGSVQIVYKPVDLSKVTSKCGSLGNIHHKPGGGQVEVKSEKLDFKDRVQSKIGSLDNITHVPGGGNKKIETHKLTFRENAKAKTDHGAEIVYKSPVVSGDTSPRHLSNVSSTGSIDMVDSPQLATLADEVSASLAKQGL
T2 sequence (P22303 whole entry): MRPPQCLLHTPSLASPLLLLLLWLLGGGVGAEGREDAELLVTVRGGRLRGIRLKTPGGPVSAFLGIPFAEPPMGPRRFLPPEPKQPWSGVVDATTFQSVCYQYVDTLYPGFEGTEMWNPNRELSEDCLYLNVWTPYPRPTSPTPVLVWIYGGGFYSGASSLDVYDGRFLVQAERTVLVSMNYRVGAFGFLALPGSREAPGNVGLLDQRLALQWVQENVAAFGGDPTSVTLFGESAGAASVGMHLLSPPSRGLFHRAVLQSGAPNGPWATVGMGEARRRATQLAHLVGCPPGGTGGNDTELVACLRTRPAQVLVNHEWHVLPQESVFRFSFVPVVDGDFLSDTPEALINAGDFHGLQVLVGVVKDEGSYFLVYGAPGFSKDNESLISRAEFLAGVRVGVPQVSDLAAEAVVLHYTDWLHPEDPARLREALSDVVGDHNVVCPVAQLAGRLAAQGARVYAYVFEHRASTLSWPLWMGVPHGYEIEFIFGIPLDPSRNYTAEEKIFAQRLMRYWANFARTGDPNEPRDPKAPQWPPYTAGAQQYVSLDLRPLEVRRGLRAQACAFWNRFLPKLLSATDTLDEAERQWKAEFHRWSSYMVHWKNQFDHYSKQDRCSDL

## CCn1cc(CNCc2c[nH]nc2-c2ccc(-c3ccccc3)cc2)cn1
[1]
  Papp: 335 nm/s
[2]
  permeability: Permeable
[3]
  Kd: 0.86 µM
Acetylcholinesterase [4]
  inhibition: Active
[5]
  Stability: Stable
Acetylcholinesterase [6]
  Kd: 1.41 µM
[7]
  Kd: 0.92 µM
[8]
  deltaH: -154 kJ/mol
Acetylcholinesterase [9]
  IC50: 0.35 µM
[10]
  Stabilty: Stable
HEL 299
  Activity: Non-Toxic
[11]
  EC50: 0.25 µM
[12]
  Stabilty: Stable
[13]
  Kd: 0.59 µM
SH-SY5Y
  viability at 10 µM: 75.1%

## COc1cc2c(cc1OC)C(=O)C(CC1CCN(Cc3ccccc3)CC1)C2 (centres undefined) [DONEPEZIL]
SH-SY5Y
  viability at 10 µM: 39.3%

## Nc1c2c(nc3ccccc13)CCCC2 [TACRINE]
SH-SY5Y
  viability at 10 µM: 29.5%

## CC(C)c1ccc2c(c1)c(SC(C)(C)C)c(CC(C)(C)C(=O)O)n2Cc1ccc(Cl)cc1
SH-SY5Y
  viability at 10 µM: 52.4%

## CN(C)c1ccc2c(c1)Sc1cc(N(C)C)ccc1N2 [HYDROMETHYLTHIONINE]
SH-SY5Y
  viability at 10 µM: 32.1%
